Measurements reported in patent US20090304692A1, “TRIAZINE COMPOUNDS AS PI3 KINASE AND MTOR INHIBITORS” (Wyeth, priority 2008, published 2009).
Values joined by “and” are separate entries in the source; they are usually repeats but may differ in a detail not shown here. Equal values may be shown once. Read-outs that look alike come from different tables or passages of the source.

Assays:
[1] = tested on: human prostate PC3-mm2 tumor cell line; experiment: In vitro cell culture growth assay (MTS), PC3-mm2; assay type: cell-based; conditions: Homo sapiens, PC3MM2, 72 h
[2] = tested on: human breast MDA-MB-361 tumor cell line; experiment: In vitro cell culture growth assay (MTS), MDA-MB-361; assay type: cell-based; conditions: Homo sapiens, MDA-MB-361, 72 h; MTS cell growth assay, three days after drug treatment; read-out: IC50 MDA-MB-361
PI3K-γ = PI3K-γ (Homo sapiens, UniProt P48736); experiment: PI3K-gamma fluorescence polarization assay; conditions: read-out: IC50 PI3Kγ
PI3K-α = PI3K-α (Homo sapiens, UniProt P42336); experiment: PI3K-alpha fluorescence polarization assay; conditions: read-out: IC50 PI3Kα
Human mTOR (FLAG-TOR) = Human mTOR (FLAG-TOR) (Homo sapiens, UniProt P42345); experiment: mTOR kinase assay (DELFIA format, purified enzyme); assay type: biochemical; conditions: read-out: IC50 mTOR
[3] = MTS cell growth assay, three days after drug treatment, read-out: IC50 PC3-mm2
[4] = MTS cell growth assay, three days after drug treatment, PC3-mm2 cells, read-out: IC50 PC3-mm2

Sequence of PI3K-γ (P48736 whole entry, species assumed): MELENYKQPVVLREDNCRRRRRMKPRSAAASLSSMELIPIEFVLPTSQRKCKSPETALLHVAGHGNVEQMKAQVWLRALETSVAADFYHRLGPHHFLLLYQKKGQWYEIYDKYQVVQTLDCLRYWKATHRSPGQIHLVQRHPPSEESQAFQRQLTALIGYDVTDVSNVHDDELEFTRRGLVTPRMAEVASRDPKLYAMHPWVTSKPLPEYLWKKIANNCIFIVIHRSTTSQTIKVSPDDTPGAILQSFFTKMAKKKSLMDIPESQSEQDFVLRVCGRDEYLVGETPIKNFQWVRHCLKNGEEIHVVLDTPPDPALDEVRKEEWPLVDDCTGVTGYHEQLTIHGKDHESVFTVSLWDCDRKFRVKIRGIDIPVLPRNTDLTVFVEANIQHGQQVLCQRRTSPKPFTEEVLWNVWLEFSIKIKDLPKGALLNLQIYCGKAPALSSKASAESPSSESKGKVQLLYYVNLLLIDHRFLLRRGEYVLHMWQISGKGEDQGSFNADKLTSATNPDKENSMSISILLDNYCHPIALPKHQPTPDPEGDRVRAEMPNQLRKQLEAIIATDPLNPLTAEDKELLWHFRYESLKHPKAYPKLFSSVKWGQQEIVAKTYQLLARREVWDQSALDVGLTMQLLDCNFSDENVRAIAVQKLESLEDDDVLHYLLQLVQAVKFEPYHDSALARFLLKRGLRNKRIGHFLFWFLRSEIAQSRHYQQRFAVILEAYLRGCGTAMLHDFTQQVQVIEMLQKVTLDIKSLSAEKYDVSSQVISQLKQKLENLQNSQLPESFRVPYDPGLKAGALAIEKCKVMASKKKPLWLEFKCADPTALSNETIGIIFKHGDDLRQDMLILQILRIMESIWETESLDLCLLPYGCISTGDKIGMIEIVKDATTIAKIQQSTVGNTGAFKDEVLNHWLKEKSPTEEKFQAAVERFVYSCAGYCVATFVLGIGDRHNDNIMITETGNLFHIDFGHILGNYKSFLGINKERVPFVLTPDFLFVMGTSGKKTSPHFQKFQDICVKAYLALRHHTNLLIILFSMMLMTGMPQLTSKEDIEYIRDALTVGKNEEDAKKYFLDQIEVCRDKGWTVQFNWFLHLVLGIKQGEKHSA
Sequence of Human mTOR (FLAG-TOR) (P42345 1360-2549 limits assumed): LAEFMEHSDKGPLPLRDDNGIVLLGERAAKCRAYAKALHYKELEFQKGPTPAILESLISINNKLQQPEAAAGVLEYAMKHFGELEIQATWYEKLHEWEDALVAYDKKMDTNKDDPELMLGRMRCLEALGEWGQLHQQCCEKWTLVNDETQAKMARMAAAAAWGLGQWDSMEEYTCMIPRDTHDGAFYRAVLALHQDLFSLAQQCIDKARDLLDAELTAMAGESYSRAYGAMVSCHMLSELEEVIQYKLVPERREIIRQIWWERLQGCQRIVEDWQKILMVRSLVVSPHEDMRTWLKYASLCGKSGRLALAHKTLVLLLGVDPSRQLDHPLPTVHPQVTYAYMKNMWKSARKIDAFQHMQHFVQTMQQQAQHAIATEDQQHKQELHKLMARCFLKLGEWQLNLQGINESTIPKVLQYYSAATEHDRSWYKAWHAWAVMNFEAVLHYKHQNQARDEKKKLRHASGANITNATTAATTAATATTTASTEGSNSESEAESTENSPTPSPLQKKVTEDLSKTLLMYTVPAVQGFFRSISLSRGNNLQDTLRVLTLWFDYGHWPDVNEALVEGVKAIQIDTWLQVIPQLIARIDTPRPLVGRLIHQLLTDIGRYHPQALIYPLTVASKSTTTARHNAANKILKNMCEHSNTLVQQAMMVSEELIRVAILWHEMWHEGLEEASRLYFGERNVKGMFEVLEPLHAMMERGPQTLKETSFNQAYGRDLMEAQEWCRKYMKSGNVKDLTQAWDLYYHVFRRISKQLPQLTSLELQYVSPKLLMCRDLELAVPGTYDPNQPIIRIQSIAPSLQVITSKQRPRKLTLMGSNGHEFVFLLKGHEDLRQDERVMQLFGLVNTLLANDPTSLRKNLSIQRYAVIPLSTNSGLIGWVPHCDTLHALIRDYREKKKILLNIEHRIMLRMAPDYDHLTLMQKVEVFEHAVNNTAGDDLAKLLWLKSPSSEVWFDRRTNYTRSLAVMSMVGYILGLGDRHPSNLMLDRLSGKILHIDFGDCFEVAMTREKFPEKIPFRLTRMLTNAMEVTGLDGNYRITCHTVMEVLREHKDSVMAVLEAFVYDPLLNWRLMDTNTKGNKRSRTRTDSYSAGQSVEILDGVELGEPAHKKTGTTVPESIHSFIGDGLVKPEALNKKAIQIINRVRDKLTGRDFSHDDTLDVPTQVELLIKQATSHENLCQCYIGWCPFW
Sequence of PI3K-α (P42336 whole entry, species assumed): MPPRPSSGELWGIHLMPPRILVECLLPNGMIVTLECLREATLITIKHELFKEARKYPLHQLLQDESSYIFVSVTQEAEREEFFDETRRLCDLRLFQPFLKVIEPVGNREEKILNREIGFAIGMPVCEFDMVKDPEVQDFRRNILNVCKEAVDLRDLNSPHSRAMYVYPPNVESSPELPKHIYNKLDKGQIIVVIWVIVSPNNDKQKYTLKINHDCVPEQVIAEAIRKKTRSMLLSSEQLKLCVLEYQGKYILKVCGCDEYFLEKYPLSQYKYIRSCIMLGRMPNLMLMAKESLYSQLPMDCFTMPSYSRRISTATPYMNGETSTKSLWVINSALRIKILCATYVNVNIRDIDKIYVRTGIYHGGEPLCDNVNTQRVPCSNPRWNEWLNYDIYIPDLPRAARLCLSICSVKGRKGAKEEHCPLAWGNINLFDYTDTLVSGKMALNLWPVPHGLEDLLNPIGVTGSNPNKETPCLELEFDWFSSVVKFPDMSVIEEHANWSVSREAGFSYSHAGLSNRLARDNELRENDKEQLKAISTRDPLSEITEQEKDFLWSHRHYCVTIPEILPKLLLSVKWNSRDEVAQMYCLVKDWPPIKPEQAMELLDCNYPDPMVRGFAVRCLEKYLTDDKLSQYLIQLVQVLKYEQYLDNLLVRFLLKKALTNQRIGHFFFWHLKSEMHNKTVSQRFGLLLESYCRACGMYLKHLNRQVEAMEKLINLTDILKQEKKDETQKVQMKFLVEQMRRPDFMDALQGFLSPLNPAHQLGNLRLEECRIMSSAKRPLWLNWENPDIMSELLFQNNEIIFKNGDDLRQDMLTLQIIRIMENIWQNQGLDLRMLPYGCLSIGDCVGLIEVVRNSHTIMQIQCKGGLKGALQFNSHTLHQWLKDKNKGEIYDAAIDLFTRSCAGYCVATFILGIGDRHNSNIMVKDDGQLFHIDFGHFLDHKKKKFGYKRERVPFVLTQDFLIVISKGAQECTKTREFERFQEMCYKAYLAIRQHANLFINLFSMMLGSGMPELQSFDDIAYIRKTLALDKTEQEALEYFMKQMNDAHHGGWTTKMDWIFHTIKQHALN
Sequence of PI3K-α (P27986 whole entry partner, species assumed): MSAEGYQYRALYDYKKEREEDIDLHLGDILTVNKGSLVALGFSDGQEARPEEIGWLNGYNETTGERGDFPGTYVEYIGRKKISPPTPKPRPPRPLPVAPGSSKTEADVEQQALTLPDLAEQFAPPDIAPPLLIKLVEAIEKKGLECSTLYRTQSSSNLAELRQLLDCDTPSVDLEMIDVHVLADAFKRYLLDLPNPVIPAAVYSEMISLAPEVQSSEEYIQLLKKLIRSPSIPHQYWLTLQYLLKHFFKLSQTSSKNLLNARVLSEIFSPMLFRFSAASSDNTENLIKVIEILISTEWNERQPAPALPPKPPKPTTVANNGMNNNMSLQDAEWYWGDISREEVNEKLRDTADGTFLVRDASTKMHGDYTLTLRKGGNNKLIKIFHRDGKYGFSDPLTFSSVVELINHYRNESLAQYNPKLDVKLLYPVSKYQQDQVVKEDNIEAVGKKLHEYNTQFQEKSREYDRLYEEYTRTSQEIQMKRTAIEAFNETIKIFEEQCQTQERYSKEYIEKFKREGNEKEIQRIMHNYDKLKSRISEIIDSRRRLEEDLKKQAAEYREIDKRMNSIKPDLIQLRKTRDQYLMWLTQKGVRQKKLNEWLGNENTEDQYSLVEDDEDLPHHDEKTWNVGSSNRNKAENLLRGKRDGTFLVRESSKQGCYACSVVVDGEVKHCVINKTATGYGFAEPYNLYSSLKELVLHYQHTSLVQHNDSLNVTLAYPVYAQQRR

| SMILES | IC50 [1, 3] [nM] | IC50 [2] [nM] | IC50 (PI3K-γ) [nM] | IC50 (PI3K-α) [nM] | IC50 (Human mTOR (FLAG-TOR)) | IC50 [1, 4] [nM] | also measured |
| --- | --- | --- | --- | --- | --- | --- | --- |
| O=C(Nc1ccc(C(=O)NC2CN3CCC2CC3)cc1)Nc1ccc(-c2nc(N3CCOCC3)nc(N3CCOCC3)n2)cc1 (stereo not drawn) [Example 73, 4-(3-(4-(4,6-dimorpholino-1,3,5-triazin-2-yl)phenyl)ureido)-N-(quinuclidin-3-yl)benzamide] | 107 | 30 | 7 | 0.3 | 0.77 nM | – | – |
| O=C(Nc1ccc(C(=O)N2CCC(N3CCCC3)CC2)cc1)Nc1ccc(-c2nc(N3CCOCC3)nc(N3CCOCC3)n2)cc1 [Example 74, 1-(4-(4,6-dimorpholino-1,3,5-triazin-2-yl)phenyl)-3-(4-(4-(pyrrolidin-1-yl)piperidine-1-carbonyl)phenyl)urea] | 8.33 | < 3 | 8 | 0.4 | 1 nM and 0.63 nM | – | IC50 (PI3K-γ; listed as 179): 13 nM; IC50 (PI3K-α; listed as 179): 1 nM |
| O=C(Nc1ccc(C(=O)N2CCC(N3CCCCC3)CC2)cc1)Nc1ccc(-c2nc(N3CCOCC3)nc(N3CCOCC3)n2)cc1 [Example 75, 1-(4-(1,4′-bipiperidine-1′-carbonyl)phenyl)-3-(4-(4,6-dimorpholino-1,3,5-triazin-2-yl)phenyl)urea] | – | < 3 | 10 | 0.6 | 0.75 nM | – | IC50 ([1]; read-out: IC50 PC3-mm2, MTS cell growth assay, three days after drug treatment): 7 nM |
| O=C(Nc1ccc(C(=O)N2CCNCC2)cc1)Nc1ccc(-c2nc(N3CCOCC3)nc(N3CCOCC3)n2)cc1 [Example 77, 1-(4-(4,6-dimorpholino-1,3,5-triazin-2-yl)phenyl)-3-(4-(piperazine-1-carbonyl)phenyl)urea] | < 30 | < 30 | 4 | 0.3 | 0.68 nM | – | – |
| C[C@H]1COCCN1c1nc(-c2ccc(NC(=O)Nc3ccncc3)cc2)nc(N2CCOCC2)n1 [Example 89, 1-(4-{4-[(3S)-3-methylmorpholin-4-yl]-6-morpholin-4-yl-1,3,5-triazin-2-yl}phenyl)-3-pyridin-4-ylurea] | 47 | 30 | 31 | 10 | 1.6 nM | – | – |
| Cc1cc(NC(=O)Nc2ccc(-c3nc(N4CCOCC4)nc(N4CCOC[C@@H]4C)n3)cc2)ccn1 [Example 92, 1-(4-{4-[(3S)-3-methylmorpholin-4-yl]-6-morpholin-4-yl-1,3,5-triazin-2-yl}phenyl)-3-(2-methylpyridin-4-yl)urea] | 87 | 140 | 92 | 11 | 2.35 nM | – | – |
| CC(O)c1ccc(NC(=O)Nc2ccc(-c3nc(N4CCOCC4)nc(N4CCOC[C@@H]4C)n3)cc2)cc1 (stereo partly drawn) [Example 93, 1-[4-(1-hydroxyethyl)phenyl]-3-(4-{4-[(3S)-3-methylmorpholin-4-yl]-6-morpholin-4-yl-1,3,5-triazin-2-yl}phenyl)urea] | 60 | 42 | 133 | 12 | 8.55 nM | – | – |
| CC(C)Oc1nc(-c2ccc(NC(=O)Nc3ccncc3)cc2)nc(N2CCOCC2)n1 [Example 94, 1-[4-(4-isopropoxy-6-morpholin-4-yl-1,3,5-triazin-2-yl)phenyl]-3-pyridin-4-ylurea] | 82 | 54 | 56 | 5 | 1 nM | – | – |
| COC(=O)c1ccc(NC(=O)Nc2ccc(-c3nc(OC(C)C)nc(N4CCOCC4)n3)cc2)cc1 [Example 95, methyl 4-({[4-(4-isopropoxy-6-morpholin-4-yl-1,3,5-triazin-2-yl)phenyl]carbamoyl}amino)benzoate] | 364 | 333 | 101 | 48 | 2.75 nM | – | – |
| O=C(Nc1ccncc1)Nc1ccc(-c2nc(C3=CCOCC3)nc(N3CCOCC3)n2)cc1 [Example 100, 1-{4-[4-(3,6-Dihydro-2H-pyran-4-yl)-6-morpholin-4-yl-[1,3,5]triazin-2-yl]-phenyl}-3-pyridin-4-yl-urea] | 56 | 56 | 38 | 5 | 3.5 nM | – | – |
| CN1C2CCC1CC(Oc1nc(-c3ccc(NC(=O)Nc4ccncc4)cc3)nc(N3CCOCC3)n1)C2 (stereo not drawn) [Example 102, 1-{4-[4-(8-methyl-8-aza-bicyclo[3.2.1]oct-3-yloxy)-6-morpholin-4-yl-[1,3,5]triazin-2-yl]-phenyl}-3-pyridin-4-yl-urea] | 854 | 592 | 84 | 6 | 6.1 nM | – | – |
| CC(C)(C)OC(=O)N1CC(CNc2nc(-c3ccc(NC(=O)Nc4ccncc4)cc3)nc(N3CCOCC3)n2)C1 [Example 104, 3-({4-Morpholin-4-yl-6-[4-(3-pyridin-4-yl-ureido)-phenyl]-[1,3,5]triazin-2-ylamino}-methyl)-azetidine-1-carboxylic acid tert-butyl ester] | 684 | 412 | 234 | 19 | 15 nM | – | – |
| O=C(Nc1ccncc1)Nc1ccc(-c2nc(NCC3CNC3)nc(N3CCOCC3)n2)cc1 [Example 105, 1-(4-{4-[(azetidin-3-ylmethyl)-amino]-6-morpholin-4-yl-[1,3,5]triazin-2-yl}-phenyl)-3-pyridin-4-yl-urea] | > 10000 | 3710 | 112 | 14 | 30.5 nM | – | – |
| O=C(Nc1ccncc1)Nc1ccc(-c2nc(N3CCOCC3)nc(N3CCC4(CC3)OCCO4)n2)cc1 [Example 130, 1-{4-[4-(1,4-dioxa-8-azaspiro[4.5]dec-8-yl)-6-morpholin-4-yl-1,3,5-triazin-2-yl]phenyl}-3-pyridin-4-ylurea] | 416 | 191 | 132 | 14 | 8 nM and 12.4 nM | 416 | IC50 (PI3K-α; listed as 705): 13.5 nM |
| O=C(Nc1ccc(-c2nc(N3CCOCC3)nc(N3CCC4(CC3)OCCO4)n2)cc1)Nc1cccnc1 [Example 131, 1-{4-[4-(1,4-dioxa-8-azaspiro[4.5]dec-8-yl)-6-morpholin-4-yl-1,3,5-triazin-2-yl]phenyl}-3-pyridin-3-ylurea] | 839 | 696 | 336 | 25 | 14.5 nM | 839 | IC50 (PI3K-α; listed as 706): 25.5 nM |
| O=C(Nc1ccccc1)Nc1ccc(-c2nc(N3CCOCC3)nc(N3CCC4(CC3)OCCO4)n2)cc1 [Example 132, 1-{4-[4-(1,4-dioxa-8-azaspiro[4.5]dec-8-yl)-6-morpholin-4-yl-1,3,5-triazin-2-yl]phenyl}-3-phenylurea] | 1010 | 586 | 234 | 14 | 26 nM and 34 nM | 1010 | IC50 (PI3K-γ; listed as 707): 234 nM |
| CN(C)c1ccc(NC(=O)Nc2ccc(-c3nc(N4CCOCC4)nc(N4CCC5(CC4)OCCO5)n3)cc2)cc1 [Example 133, 1-[4-(dimethylamino)phenyl]-3-{4-[4-(1,4-dioxa-8-azaspiro[4.5]dec-8-yl)-6-morpholin-4-yl-1,3,5-triazin-2-yl]phenyl}urea] | 1950 | 795 | 8890 | 39 | 43 nM | 1950 | IC50 (PI3K-γ; listed as 708): 8890 nM; IC50 (PI3K-α; listed as 708): 39.5 nM |
| N#Cc1ccc(NC(=O)Nc2ccc(-c3nc(N4CCOCC4)nc(N4CCC5(CC4)OCCO5)n3)cc2)cc1 [Example 134, 1-(4-cyanophenyl)-3-{4-[4-(1,4-dioxa-8-azaspiro[4.5]dec-8-yl)-6-morpholin-4-yl-1,3,5-triazin-2-yl]phenyl}urea] | 857 | 805 | 183 | 20 | 24.5 nM | 857 | IC50 (PI3K-γ; listed as 709): 182 nM |
| Cc1cc(NC(=O)Nc2ccc(-c3nc(N4CCOCC4)nc(N4CCC5(CC4)OCCO5)n3)cc2)ccn1 [Example 135, 1-{4-[4-(1,4-dioxa-8-azaspiro[4.5]dec-8-yl)-6-morpholin-4-yl-1,3,5-triazin-2-yl]phenyl}-3-(2-methylpyridin-4-yl)urea] | 509 | 533 | 143 | 15 | 34 nM | 509 | IC50 (PI3K-γ; listed as 710): 144 nM; IC50 (PI3K-α; listed as 710): 15.5 nM |
| O=C(Nc1ccncc1)Nc1ccc(-c2nc(-c3cnc4ccccc4c3)nc(N3CCOCC3)n2)cc1 [Example 137, 1-[4-(4-morpholin-4-yl-6-quinolin-3-yl-1,3,5-triazin-2-yl)phenyl]-3-pyridin-4-ylurea] | 551 | 582 | 117 | 9 | 8.55 nM | 551 | IC50 (PI3K-α; listed as 712): 9.5 nM |
| O=C(Nc1ccc(C(=O)N2CCOCC2)cc1)Nc1ccc(-c2nc(N3CCOCC3)nc(N3CCOCC3)n2)cc1 [Example 152, 1-[4-(4,6-dimorpholin-4-yl-1,3,5-triazin-2-yl)phenyl]-3-[4-(morpholin-4-ylcarbonyl)phenyl]urea] | 14 | 9 | 5 | 2 | 2 nM | – | – |
